Measurements taken from patent US20040122033A1, “Combination therapy for the treatment of obesity” (priority 2002, published 2004).
Read-outs that look alike come from different tables or passages of the source.

Experiments:
[1] = test system: wild type and MCH1R KO mice; test: CB-1 inverse agonist - MCH1R knock out mouse study (2 hour and overnight food intake); type: in vivo; details: 5 mg/kg orally
Protocol: AM251 was given to wild type and MCH1R KO mice orally at 5 mg/kg. Two hour and overnight food intake were measured.

[2] = test system: wild type, NPY KO mice, and AGRP-NPY double KO mice; test: CB-1 inverse agonist - NPY knock out mouse study (overnight food intake); type: in vivo; details: 3 mg/kg orally
Protocol: AM25 1 was given to wild type, NPY KO Mice, and AGRP-NPY double KO mice orally at 3 mg/kg. Overnight food intake was measured.

[3] = test system: Wild type or MCH1R KO mice; details: for 2 hour food intake: 1 μg MT-II icv at onset of dark cycle, vs aCSF vehicle
Protocol: Wild type or MCH1R KO mice were implanted with intracerebroventricular (icv) cannulae for icv administration of compounds. One microgram of MT-II was given by icv injection per animal at the onset of dark cycle and food intake was measured 2 hours post-injection. Overnight body weight differences were also measured. Artificial cerebrospinal fluid (aCSF) was used as a vehicle to dissolve MT-II.

[4] = in vivo; cited from earlier work

Molecule: Cc1c(C(=O)NN2CCCCC2)nn(-c2ccc(Cl)cc2Cl)c1-c1ccc(I)cc1 [AM251]
- 2 hour food intake ([1]; MCH1R KO mice): significantly inhibited
- overnight food intake ([1]; MCH1R KO mice, 5 mg/kg): inhibits
- overnight food intake ([1]; MCH1R KO mice, listed as AM 251, 5 mg/kg): significantly inhibited
- 2 hour food intake ([1]; wild type mice): significantly inhibited
- overnight food intake ([1]; wild type mice, 5 mg/kg): inhibits
- overnight food intake ([1]; wild type mice, listed as AM 251, 5 mg/kg): significantly inhibited
- overnight food intake ([2]; AGRP-NPY double KO mice): significantly inhibits
- overnight food intake ([2]; NPY KO mice): significantly inhibits
- overnight food intake ([2]; wild type mice): significantly inhibits

Molecule: Melanotan-II [MT-II]
- overnight body weight compared to vehicle treated mice ([3]; MCH1R KO mice, 1 μg MT-II icv): reduced body weight
- 2 hour food intake ([3]; MCH1R KO mice): significantly inhibited
- decrease of overnight food intake ([3]; MCH-1R knock out mice, 1 μg MT-II icv, overnight): greater than 80%
- decrease in food intake, MCH-1R knock out mice versus wild type mice ([3]; MT-II treated MCH-1R knock out mice compared with MT-II treated wild type mice, FIG. 1): significantly greater decrease in food intake
- overnight decrease in bodyweight, MCH-1R knock out mice versus wild type mice ([3]; MT-II treated MCH-1R knock out mice compared with MT-II treated wild type mice, FIG. 2): greater overnight decrease in bodyweight
- overnight body weight compared to vehicle treated mice ([3]; wild type mice, 1 μg MT-II icv): reduced body weight
- 2 hour food intake ([3]; wild type mice): significantly inhibited

Molecule: CC1(C)O[C@@H]2[C@@H](CO[C@@]3(COS(N)(=O)=O)OC(C)(C)O[C@@H]23)O1 [Topiramate]
- weight loss [4]: increase weight loss
